Measurements published in patent US5451397A, “Bile acid sequestrant” (priority 1992, dated 1995).

System: Chinese hamster ovary (CHO) cell cultures
Assay type: cell-based
Procedure: A suspension of particles of the sequestrant in deionized water was prepared. The suspension was serially diluted into serumless culture medium. The most concentrated suspension tested was 1000 micrograms sequestrant per milliliter suspension (μg/ml). Exponentially growing Chinese hamster ovary (CHO) cell cultures were treated with the sequestrant dilutions for three hours. The cultures were gently rocked on a rocker platform during treatment in an attempt to maintain a uniform suspension over the cells for the entire treatment period. Negative controls i.e., CHO cell cultures treated with serumless culture medium, and solvent controls, i.e., CHO cell cultures treated with 1% deionized water in serumless culture medium, were included. Treatment was terminated by washing the cultures twice with Dulbecco's phosphate buffered saline and cells were allowed to recover in McCoy's 5A medium containing 10% fetal bovine serum for 0, 5 or 21 hours, i.e., 3, 8 or 24 hours from the beginning of treatment. […] The harvested cells were counted by Coulter counter to determine relative reductions in cell numbers. At selected doses, Trypan blue exclusion counts were conducted using a hemacytometer to determine cell viability to control for the possibility that some dead cells may have been counted with the Coulter counter. […]

“poly(dimethylaminopropylmethacrylamide) [Comparative Example C1]” was tested, and the “ED50 (dosage effective to kill 50% of the cells)” value was 10.0 µg/mL.
